Assay results as given in article PMC9715946, “Bioenhancing effects of piperine and curcumin on triterpenoid pharmacokinetics and neurodegenerative metabolomes from Centella asiatica extract in beagle dogs” (Scientific Reports, 2022).
One block for each compound: values may come before it.

Columns and labels:
[1] = Pharmacokinetic study: plasma triterpenoids by LCMS, non-compartmental analysis; design: species or system beagle dogs; conditions: dog, in vivo; for Tmax: 20 mg/kg
Source text: The proposed animal experiment was approved by the Institutional Animal Care and Use Committee of the Chulalongkorn University Laboratory Animal Centre (CULAC), Chulalongkorn University, Bangkok, Thailand (Protocol number 2073029, Approval date: […] The dogs were fed with a normal dog diet (Beauty Pro, Nippon Pet Food Co. Ltd.) once a day and water ad libitum. Two groups of four dogs were randomly used with a 2-week washout period. […] After receiving the test substances, the dogs were transferred to a metabolic cage for 48 h for the collection of urine and faeces. All animal procedures were performed in accordance with the ethical principles, regulations, and guidelines for the use of animals (National Research Council of Thailand, 2015). This study was conducted in compliance with the ARRIVE guidelines. Four experimental groups received the oral test compound once daily for seven consecutive days, as follows: ([…] 20 […] 20 mg/kg + piperine 20 mg/kg; ([…] 20 mg/kg + curcumin 20 mg/kg; and (iv) […] 20 mg/kg + piperine 20 mg/kg + curcumin 20 mg/kg. The test substance powders received from the suppliers were packed into gelatine capsule, and the dogs were orally administered two to four capsules in the morning, according to the number of test substances required in the experimental plan. Blood samples (2-3 mL) were withdrawn from the cephalic or saphenous vein using an IV catheter and placed in heparinised tubes. […] The pre-dose and 24 h post-dose blood chemistry parameters were determined by the Small Animal Hospital, Faculty of Veterinary Science, Chulalongkorn University for all dogs, in order to monitor the health status of the dogs. […] All biological samples were kept at - 80 °C until required for analysis. Where the concentration of the samples exceeded the linear calibration curve, blank matrices were used to dilute the sample before protein precipitation. Methanol was used to extract the major triterpenoids from the biological samples for LCMS analysis. In brief, 50 μL of the biological sample was added to 200 μL methanol containing glycyrrhizin and glycyrrhetinic acid as internal standards. The mixture was then centrifuged at 12,000g for 10 min at 4 °C to collect the supernatant, and 10 μL of the supernatant was injected into the LCMS system to measure the concentration of the targeted analytes. […] A Synergi Fusion-RP C18 column (Phenomenex Inc.) was selected as the stationary phase and maintained at 40 °C in the column oven. […] The lower limit of quantification (LLOQ) of each of the compounds in this study ranged from 1.00 to 10.00 μg/L, according to the compound. After oral administration, pharmacokinetic parameters were determined by PK solution software version 2.0 (Submit Research Services, USA.) using non-compartmental analysis. The maximum plasma concentration (Cmax) and time to reach maximum plasma concentration (Tmax) were calculated directly from the concentration-time curves. The area under the curve from time 0-24 h (AUC0-24) was determined by the trapezoidal method and extrapolated to time infinity by the equation AUC0-inf = AUC0-24 + (Clast/kel), where Clast is the last measurable plasma concentration and kel is the elimination rate constant. The rate of […] was equal to - 2.303 × slope. The mean residence time (MRT) was calculated as AUMC0-inf/AUC0-inf, where AUMC0-inf is the area under the first moment curve. The volume of distribution (Vd) was equivalent to dose/C0, where C0 is the concentration of drug measured in plasma at time zero. The total clearance (CL) was equal to dose/AUC0-inf, and the elimination half-life was determined by 0.693/kel. […] The difference in blood chemistry parameters pre-dose and post-dose was compared using Student's t test. SPSS version 22.0 (IBM Corp.) was used to determine statistically significant differences between the experimental groups. […]

[2] = piperine in combination, self-emulsifying drug delivery systems; cited from earlier work
[3] = design: method as in PMID 19934593; conditions: pre-treatment with curcumin 60 mg/kg; cited from earlier work
[4] = in combination with 100 mg/kg of curcumin; cited from earlier work

Increase of systemic exposure (Cmax and AUC) by Centell-S + piperine compared to Centell-S alone [1]: 1.5 to 3.0 fold
Time to reach maximum plasma concentration [1]: 2 to 4 h
Time to reach maximum plasma concentration ([1]; po): 1 to 2 h
Compound: madecassoside

Increase of systemic exposure (Cmax and AUC) by Centell-S + piperine compared to Centell-S alone ([1]; male, beagle): 1.5 to 3.0 fold
Accumulation ratio ([1]; male, beagle, 7 days): 1.05–1.44
Tmax ([1]; male, beagle, po, Time to reach maximum plasma concentration): 2 to 4 h
Tmax ([1]; male, beagle, po, Tmax): 2 h
Compound: C[C@H]1[C@H](C)CC[C@]2(C(=O)O)CC[C@]3(C)C(=CC[C@@H]4[C@@]5(C)C[C@@H](O)[C@H](O)[C@@](C)(CO)[C@@H]5CC[C@]43C)[C@H]12 [Asiatic acid, asiatic acid]

Compound: C=C(C)[C@@H]1CCC(C)=C[C@H]1c1c(O)cc(CCCCC)cc1O [cannabidiol]
Improvement of oral bioavailability compared to the control group [2]: approximately 2.5 fold

Compound: CCn1cc(C(=O)O)c(=O)c2cc(F)c(N3CCNCC3)cc21 [norfloxacin]
Increase of AUC compared with the control group [3]: approximately two-fold

Compound: CC(=O)O[C@@]12CO[C@@H]1C[C@H](O)[C@@]1(C)C(=O)[C@H](O)C3=C(C)[C@@H](OC(=O)[C@H](O)[C@@H](NC(=O)OC(C)(C)C)c4ccccc4)C[C@@](O)([C@@H](OC(=O)c4ccccc4)[C@H]21)C3(C)C [docetaxel]
Increase of bioavailability compared to the control group [4]: approximately eight-fold
